Results as given in patent publication US11485701B2, “Insect repellent compounds and compositions, and methods thereof” (Iowa State University Research Foundation, Inc., priority 2016, dated 2022).
Counter-ions that a name gives are not always drawn.

Tested on: Northern house mosquitoes (Culex pipiens)
Assay: Short-term spatial repellency, static air repellency chamber
Format: in vivo
Settings: 1 mL of 0.5% solution in acetone
Procedure: (§1) Northern house mosquitoes (Culex pipiens), a primary carrier of West Nile virus in eastern North America, were obtained from an established colony in the Medical Entomology Laboratory in the Department of Entomology at Iowa State University of Science and Technology, Ames Iowa. Mosquito rearing was performed by established protocols that are maintained by the Medical Entomology Laboratory. Repellency bioassays were performed with adult female mosquitoes that emerged 5-7 days previously. […] Mosquitoes, prior to testing, were held at 27° C., 80% relative humidity, and on a 16:8 hr light:dark photoperiod.
Repellency bioassays were performed using a static air repellency chamber, which has been described in various publications by the Pesticide Toxicology Laboratory at Iowa State University of Science and Technology, Ames, Iowa Briefly, a 9-cm×60-cm glass tube was used to monitor the distribution of mosquitoes at 15 min, 30 min, 60 min, 90 min, 120 min, and 150 min after introducing mosquitoes into the static air repellency chamber. […] One end of the spatial chamber contained a treated filter paper, whereas the other (untreated) end of the spatial chamber was not treated with compound. Controls contained filter papers treated with acetone, the solvent used to make the 0.5% solutions. Each end of the repellency chamber was secured with a 100-mm Petri dish using celluloid tape. After securing the petri dishes with corresponding treated or untreated filter papers to the spatial chamber, mosquitoes were anesthetized with carbon dioxide, and approximately 20 female mosquitoes were placed into each repellency chamber for one replicate. The opening of the spatial repellency chamber was secured with celluloid tape to prevent their escape. Chambers were oriented in opposite directions from the previous replicate to account for any directional effect. Four replicates were performed for data analysis for both the control and treatment groups.
(§2) Data for spatial repellency, the percentage repellency, is reported at each of the respective time points in the figures and tables mentioned below. The percentage spatial repellency is the examination of the distribution of mosquitoes and is calculated using the following equation: […]

SMILES | Short-term spatial repellency, in words
CC1CCC(C(C)C)C(OC(=O)C2CC2)C1 (stereo not drawn) [Compound 1033B, menthyl cyclopropanecarboxylate] | very effective spatial repellent
Cc1ccc(C(C)C)c(OC(=O)C2CC2)c1 [Compound 1055A, thymol cyclopropanecarboxylate] | very effective spatial repellent

Same assay, conditions: 1 mL of 0.5% solution in acetone; 30 minutes

SMILES | Short-term percentage repellency 30 min [%]
CC1CCC(C(C)C)C(OC(=O)C2CC2)C1 (stereo not drawn) [Compound 1033B, menthyl cyclopropanecarboxylate] | 47.5
Cc1ccc(C(C)C)c(OC(=O)C2CC2)c1 [Compound 1055A, thymol cyclopropanecarboxylate] | 58

Same assay, conditions: 1 mL of 0.5% solution in acetone; 120 minutes

SMILES | Short-term percentage repellency 120 min [%]
CC1CCC(C(C)C)C(OC(=O)C2CC2)C1 (stereo not drawn) [Compound 1033B, menthyl cyclopropanecarboxylate] | 95

Same assay, conditions: Culex pipiens, 0.25 h, read-out: Short-term Percentage repellency 15 min

SMILES | pest or weed control at 0.5 % [%]
CC(C)=CCCC(C)CCOC(=O)C(F)F (stereo not drawn) [Compound 2192, citronellyl difluoroacetate] | 42.5

Same assay, conditions: Culex pipiens, 0.25 h; filter paper, 1 mL of 0.5% solution in acetone, air-dried 15 min; 15 min after introduction; read-out: Short-term Percentage repellency 15 min

SMILES | pest or weed control at 0.5 % [%]
CC(C)=CCC/C(C)=C/COC(=O)C1CC1 [Compound 2023A, geranyl cyclopropanecarboxylate] | 45
CC(C)=CCCC(C)CCOC(=O)C1CCCC1 (stereo not drawn) [Compound 2119, citronellyl cyclopentanecarboxylate] | -1.25
Cc1ccc(C(C)C)c(OC=O)c1 [Compound 1107A, thymyl formate] | 35
Cc1ccc(C(C)C)c(OC(=O)CC(C)C)c1 [Compound 1055B, thymyl isovalerate] | 12.5
CC1CCC(C(C)C)C(OC(=O)C2CC2)C1 (stereo not drawn) [Compound 1033B, menthyl cyclopropanecarboxylate] | 15
Cc1ccc(C(C)C)c(OC(=O)C2CC2)c1 [Compound 1055A, thymol cyclopropanecarboxylate] | -10
Cc1ccc(C(C)C)c(OC(=O)C2CCCCC2)c1 [Compound 2085, thymyl cyclohexanecarboxylate] | 17.5
O=C(OC/C=C/c1ccccc1)C1CCC1 [Compound 2039, cinnamyl cyclobutanecarboxylate] | 30
CCN(CC)C(=O)c1cccc(C)c1 [N,N-diethyl-meta-toluamide (DEET), N,N-diethyl-meta-toluamide, reference compound] | 20

Same assay, conditions: Culex pipiens, 1.5 h, read-out: Short-term Percentage repellency 90 min

SMILES | pest or weed control at 0.5 % [%]
CC(C)=CCCC(C)CCOC(=O)C(F)F (stereo not drawn) [Compound 2192, citronellyl difluoroacetate] | 95

Same assay, conditions: Culex pipiens, 1.5 h; filter paper, 1 mL of 0.5% solution in acetone, air-dried 15 min; 90 min; read-out: Short-term Percentage repellency 90 min

SMILES | pest or weed control at 0.5 % [%]
CC(C)=CCC/C(C)=C/COC(=O)C1CC1 [Compound 2023A, geranyl cyclopropanecarboxylate] | 42.5
CC(C)=CCCC(C)CCOC(=O)C1CCCC1 (stereo not drawn) [Compound 2119, citronellyl cyclopentanecarboxylate] | 33.8
Cc1ccc(C(C)C)c(OC=O)c1 [Compound 1107A, thymyl formate] | 80
Cc1ccc(C(C)C)c(OC(=O)CC(C)C)c1 [Compound 1055B, thymyl isovalerate] | 65
CC1CCC(C(C)C)C(OC(=O)C2CC2)C1 (stereo not drawn) [Compound 1033B, menthyl cyclopropanecarboxylate] | 95
Cc1ccc(C(C)C)c(OC(=O)C2CC2)c1 [Compound 1055A, thymol cyclopropanecarboxylate] | 87.5
Cc1ccc(C(C)C)c(OC(=O)C2CCCCC2)c1 [Compound 2085, thymyl cyclohexanecarboxylate] | 35
CCN(CC)C(=O)c1cccc(C)c1 [N,N-diethyl-meta-toluamide (DEET), N,N-diethyl-meta-toluamide, reference compound] | 50

Same assay, conditions: Culex pipiens, 2.5 h, read-out: Short-term Percentage repellency 150 min

SMILES | pest or weed control at 0.5 % [%]
CC(C)=CCCC(C)CCOC(=O)C(F)F (stereo not drawn) [Compound 2192, citronellyl difluoroacetate] | 95

Same assay, conditions: Culex pipiens, 2.5 h; filter paper, 1 mL of 0.5% solution in acetone, air-dried 15 min; 150 min; read-out: Short-term Percentage repellency 150 min

SMILES | pest or weed control at 0.5 % [%]
CC(C)=CCC/C(C)=C/COC(=O)C1CC1 [Compound 2023A, geranyl cyclopropanecarboxylate] | 45
CC(C)=CCCC(C)CCOC(=O)C1CCCC1 (stereo not drawn) [Compound 2119, citronellyl cyclopentanecarboxylate] | 52.5
Cc1ccc(C(C)C)c(OC=O)c1 [Compound 1107A, thymyl formate] | 75
Cc1ccc(C(C)C)c(OC(=O)CC(C)C)c1 [Compound 1055B, thymyl isovalerate] | 77.5
CC1CCC(C(C)C)C(OC(=O)C2CC2)C1 (stereo not drawn) [Compound 1033B, menthyl cyclopropanecarboxylate] | 92.5
Cc1ccc(C(C)C)c(OC(=O)C2CC2)c1 [Compound 1055A, thymol cyclopropanecarboxylate] | 95
Cc1ccc(C(C)C)c(OC(=O)C2CCCCC2)c1 [Compound 2085, thymyl cyclohexanecarboxylate] | 50
CCN(CC)C(=O)c1cccc(C)c1 [N,N-diethyl-meta-toluamide (DEET), N,N-diethyl-meta-toluamide, reference compound] | 56.7

Tested on: Northern house mosquitoes (Culex pipiens)
Assay: Long-term spatial repellency, static air repellency chamber, filter papers air-dried 5 hours
Format: in vivo
Settings: 0.5% solution, air-dried 5 hours
Procedure: as §1, with “were” for “emerged”, “post-emergent.” for “previously.”
Repellency bioassays were performed using a static air repellency chamber, which has been described in various publications by the Pesticide Toxicology Laboratory at Iowa State University of Science and Technology, Ames, Iowa Briefly, a 9-cm×60-cm glass tube was used to monitor the distribution of mosquitoes at 15 min, 30 min, 60 min, 90 min, 120 min, and 150 min after introducing mosquitoes into the static air repellency chamber. Treated filter papers were treated with 1 mL of 0.5% solution in acetone of the terpenoid analogs created in the lab and were exposed to ambient air for 5 hours before they were introduced into the spatial chamber for testing. This is a slight modification of the method described in Example 2, so as to evaluate the residual repellent character of these compounds on a treated surface after 5 hours. One end of the spatial chamber contained a treated filter paper, whereas the other (untreated) end of the spatial chamber was not treated with compound. Controls contained filter papers treated with acetone, the solvent used to make the 0.5% solutions. Each end of the repellency chamber was secured with a 100-mm Petri dish using celluloid tape. After securing the petri dishes with corresponding treated or untreated filter papers to the spatial chamber, mosquitoes were anesthetized with carbon dioxide, and approximately 20 female mosquitoes were placed into each repellency chamber for one replicate. The opening of the spatial repellency chamber was secured with celluloid tape to prevent their escape. Chambers were oriented in opposite directions from the previous replicate to account for any directional effect. Four replicates were performed for data analysis for both the control and treatment groups.
as §2, with “below in this disclosure.” for “below.”

SMILES | Long-term repellency, in words
CC(C)=CCC/C(C)=C/COC(=O)C1CC1 [Compound 2023A, geranyl cyclopropanecarboxylate] | much greater than DEET
CC1CCC(C(C)C)C(OC(=O)C2CC2)C1 (stereo not drawn) [Compound 1033B, menthyl cyclopropanecarboxylate] | much greater than DEET

Same assay, conditions: 0.5% solution, air-dried 5 hours; 60 minutes

SMILES | Long-term percentage repellency 60 min [%]
CC(C)=CCC/C(C)=C/COC(=O)C1CC1 [Compound 2023A, geranyl cyclopropanecarboxylate] | 47.5

Same assay, conditions: Culex pipiens, 0.25 h, read-out: Long-term Percentage repellency 15 min

SMILES | pest or weed control at 0.5 % [%]
CC(C)=CCCC(C)CCOC(=O)C(F)F (stereo not drawn) [Compound 2192, citronellyl difluoroacetate] | 50

Same assay, conditions: Culex pipiens, 0.25 h; 1 mL of 0.5% solution in acetone, air-dried 5 hours; 15 min; read-out: Long-term Percentage repellency 15 min

SMILES | pest or weed control at 0.5 % [%]
CC(C)=CCC/C(C)=C/COC(=O)C1CC1 [Compound 2023A, geranyl cyclopropanecarboxylate] | 45
CC(C)=CCCC(C)CCOC(=O)C1CCCC1 (stereo not drawn) [Compound 2119, citronellyl cyclopentanecarboxylate] | 20
Cc1ccc(C(C)C)c(OC=O)c1 [Compound 1107A, thymyl formate] | 25
Cc1ccc(C(C)C)c(OC(=O)CC(C)C)c1 [Compound 1055B, thymyl isovalerate] | 0
CC1CCC(C(C)C)C(OC(=O)C2CC2)C1 (stereo not drawn) [Compound 1033B, menthyl cyclopropanecarboxylate] | 65
Cc1ccc(C(C)C)c(OC(=O)C2CC2)c1 [Compound 1055A, thymol cyclopropanecarboxylate] | 0
Cc1ccc(C(C)C)c(OC(=O)C2CCCCC2)c1 [Compound 2085, thymyl cyclohexanecarboxylate] | 17.5
O=C(OC/C=C/c1ccccc1)C1CCC1 [Compound 2039, cinnamyl cyclobutanecarboxylate] | 40
CCN(CC)C(=O)c1cccc(C)c1 [N,N-diethyl-meta-toluamide (DEET), N,N-diethyl-meta-toluamide, reference compound] | 32.5

Same assay, conditions: Culex pipiens, 1.5 h, read-out: Long-term Percentage repellency 90 min

SMILES | pest or weed control at 0.5 % [%]
CC(C)=CCCC(C)CCOC(=O)C(F)F (stereo not drawn) [Compound 2192, citronellyl difluoroacetate] | 72.5

Same assay, conditions: Culex pipiens, 1.5 h; 1 mL of 0.5% solution in acetone, air-dried 5 hours; 90 min; read-out: Long-term Percentage repellency 90 min

SMILES | pest or weed control at 0.5 % [%]
CC(C)=CCC/C(C)=C/COC(=O)C1CC1 [Compound 2023A, geranyl cyclopropanecarboxylate] | 42.5
CC(C)=CCCC(C)CCOC(=O)C1CCCC1 (stereo not drawn) [Compound 2119, citronellyl cyclopentanecarboxylate] | 55
Cc1ccc(C(C)C)c(OC=O)c1 [Compound 1107A, thymyl formate] | 17.5
Cc1ccc(C(C)C)c(OC(=O)CC(C)C)c1 [Compound 1055B, thymyl isovalerate] | 22.5
CC1CCC(C(C)C)C(OC(=O)C2CC2)C1 (stereo not drawn) [Compound 1033B, menthyl cyclopropanecarboxylate] | 71.7
Cc1ccc(C(C)C)c(OC(=O)C2CC2)c1 [Compound 1055A, thymol cyclopropanecarboxylate] | 32.5
Cc1ccc(C(C)C)c(OC(=O)C2CCCCC2)c1 [Compound 2085, thymyl cyclohexanecarboxylate] | 35
O=C(OC/C=C/c1ccccc1)C1CCC1 [Compound 2039, cinnamyl cyclobutanecarboxylate] | 57.5
CCN(CC)C(=O)c1cccc(C)c1 [N,N-diethyl-meta-toluamide (DEET), N,N-diethyl-meta-toluamide, reference compound] | 32.5

Same assay, conditions: Culex pipiens, 2.5 h, read-out: Long-term Percentage repellency 150 min

SMILES | pest or weed control at 0.5 % [%]
CC(C)=CCCC(C)CCOC(=O)C(F)F (stereo not drawn) [Compound 2192, citronellyl difluoroacetate] | 65

Same assay, conditions: Culex pipiens, 2.5 h; 1 mL of 0.5% solution in acetone, air-dried 5 hours; 150 min; read-out: Long-term Percentage repellency 150 min

SMILES | pest or weed control at 0.5 % [%]
CC(C)=CCC/C(C)=C/COC(=O)C1CC1 [Compound 2023A, geranyl cyclopropanecarboxylate] | 45
CC(C)=CCCC(C)CCOC(=O)C1CCCC1 (stereo not drawn) [Compound 2119, citronellyl cyclopentanecarboxylate] | 45
Cc1ccc(C(C)C)c(OC=O)c1 [Compound 1107A, thymyl formate] | 22.5
Cc1ccc(C(C)C)c(OC(=O)CC(C)C)c1 [Compound 1055B, thymyl isovalerate] | 27.5
CC1CCC(C(C)C)C(OC(=O)C2CC2)C1 (stereo not drawn) [Compound 1033B, menthyl cyclopropanecarboxylate] | 82.5
Cc1ccc(C(C)C)c(OC(=O)C2CC2)c1 [Compound 1055A, thymol cyclopropanecarboxylate] | 52.5
Cc1ccc(C(C)C)c(OC(=O)C2CCCCC2)c1 [Compound 2085, thymyl cyclohexanecarboxylate] | 50
O=C(OC/C=C/c1ccccc1)C1CCC1 [Compound 2039, cinnamyl cyclobutanecarboxylate] | 60
CCN(CC)C(=O)c1cccc(C)c1 [N,N-diethyl-meta-toluamide (DEET), N,N-diethyl-meta-toluamide, reference compound] | 45
